Source: patent publication US6680292B1 (The Salk Institute for Biological Studies, priority 1998, dated 2004)
“Also recorded” adds a separate entry of the source.

B1: NGF: nerve growth factor; mouse 2.5S NGF at 500 pg/ml (protein, UniProt P01139 122-241, looked up)
Beta-nerve growth factor: SSTHPVFHMGEFSVCDSVSVWVGDKTTATDIKGKEVTVLAEVNINNSVFRQYFFETKCRASNPVESGCRGIDSKHWNSYCTTTHTFVKALTTDEKQAAWRFIRIDTACVCVLSRKATRRG
modifications: Beta-nerve growth factor
notes: nerve growth factor; mouse 2.5S NGF at 500 pg/ml

Key:
PC12 cells [1] = experiment: Growth cone turning in PC12 cells; assay type: cell-based, rat; conditions: for growth cone turning: PC12 cells exposed to a focal site of compound, FIGS. 8A-8E
Method: The ability of compounds to stimulate neurite elongation as determined by growth cone turning was evaluated in vitro. PC 12 cells were cultured as described above (see Example 1). Cells growing in culture were exposed to a focal site of Ribavirin and control compounds and the number of growth cones with a turning angle was measured and the turned angle of each growth cone was measured.

PC12 cells [2] = experiment: Survival and proliferation of PC12 cells (cell counts); assay type: cell-based, rat
Method: PC12 cells were maintained in RPMI-1640 medium supplemented with 5% fetal calf serum (FCS), 5% heat-inactivated horse serum (HS), 100 units/ml penicillin G sodium, 100 μg/ml streptomycin sulfate and 0.245 μg/ml amphotericin B. NGF-treated cells were grown in the presence of 500 pg/ml mouse 2.5S NGF. The 1-(β-D-ribofuranosyl)-1H-1,2,4-triazole-3-carboxamide was supplied by ICN Pharmaceuticals. HCN cells were maintained in serum-free N2 basal media with 500 pg/ml of FGF-2. Cells were plated on plastic tissue culture plates coated with polyornithine.
PC12 cells were grown as described above and plated at a density of 10,000 cells/well in RPMI with 500 pg/ml NGF. […] Cells were counted and neurite elongation evaluated on days 0, 1 and 3. The media was not changed for the duration of the experiment.

PC12 cells [3] = experiment: Neurite outgrowth / elongation in PC12 cells; assay type: cell-based, rat
Method: Neurite outgrowth was determined by measuring neurites from the cell body to the longest point and by counting the number of neurites per cell according to the method of Gysbers et al. (Gysbers et al., NeuroReport 3:997-1000 (1992) and Gysbers et al., Int. J. Dev. Neurosci. 14:19-34 (1996)). Cells are stained with antibodies for Rip, Glial Fibrillary Acidic Protein (GFAP), Microtubule Associated Protein 2ab (MAP2ab), and Calbindin (a Ca-buffering protein).
Briefly, cells were plated on poly-DL-ornithine-coated wells in 24-well plates at a concentration of 2.5×10^4 cells per well in RPMI-1640 medium containing 1.5% FCS, and 1.5% HS. Test compounds and NGF were added immediately after plating. […] The number of cells bearing neurites greater than one cell body diameter after each treatment with test compound was divided by the total number of cells counted.
The ratio of the number of cells bearing neurites in each treatment were divided by the total number of cells counted per treatment to determine the proportion of neurite bearing cells for each sample. The mean values (±S.E.M.) were then calculated for each treatment. […] The effect of the test compounds plus NGF is expressed as a percentage of the values obtained using 500 pg/ml NGF (which is given an arbitrary * value of 100% since neurite outgrowth proportions varied between experiments, usually from 20 to 35% for NGF-alone treatments). […]

HCN cells [4] = experiment: FGF-2 induced neurite elongation in HCN cells; assay type: cell-based; conditions: HCN cells with FGF-2; 0.1, 0.5, 1, 100, 400 nM Ribavirin
Fibroblasts = experiment: Effect on non-neuronal cells: fibroblasts; assay type: cell-based; conditions: same experimental condition as PC12 and HCN cells
astrocytes = experiment: Effect on non-neuronal cells: astrocytes; assay type: cell-based; conditions: same experimental condition as PC12 and HCN cells
HCN cells [5] = test system: HCN cells

Molecule | growth cone turning (PC12 cells [1]) | effect on cell survival or proliferation (PC12 cells [2]; PC12 cells, absence of NGF, various concentrations, FIG. 1) | effects of NGF on the survival and proliferation of PC12 cells (PC12 cells [2]; with 500 pg/ml NGF, assessed at day 1 and day 3, FIG. 2) | neurite elongation and networking (PC12 cells [3]; PC12 cells with NGF, 100 pM, 500 pM, 1 nM, 100 nM and 400 nM) | elongation and networking of the neurites (HCN cells [4]) | effect on fibroblasts (Fibroblasts) | effect on astrocytes (astrocytes) | effective concentrations for growth cone turning (PC12 cells [1]; PC12 cells) | concentrations at which effects were more pronounced (HCN cells [5]; HCN cells with FGF-2) | effect on FGF-2 actions (proliferation, survival) (HCN cells [5]; HCN cells with FGF-2, up to 7 days, FIGS. 4 and 5) | effect on cell survival or proliferation (HCN cells [5]; HCN cells, Ribavirin alone (no FGF-2), 12,500 or 25,000 cells/well, FIG. 3) | neurite outgrowth proportions (proportion of neurite bearing cells) (PC12 cells [3]; NGF-alone treatments, 500 pg/ml NGF, varied between experiments)
Nc1nc2c(nc(Br)n2[C@@H]2O[C@@H]3COP(=O)(O)O[C@H]3[C@H]2O)c(=O)[nH]1 [8-bromo-cGMP] | turning away from the site (i.e., repulsion |  |  |  |  |  |  |  |  |  |  | 
NC(=O)c1ncn([C@@H]2O[C@H](CO)[C@@H](O)[C@H]2O)n1 [Ribavirin, 1-(β-D-ribofuranosyl)-1H-1,2,4-triazole-3-carboxamide] | stimulated growth cone turning; also recorded: increased turning towards the Ribavirin site (attraction) | No statistically significant effect | augmented/enhanced | enhanced at all concentrations tested | increased elongation and networking | without effect | without effect | nanomolar range | less than 1 nM | augmented/enhanced FGF-2 actions | no effect | 
B1 |  |  |  |  |  |  |  |  |  |  |  | 20 to 35%
